Each structure is given as a SMILES string.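 Tested at 5 concentrations; 48 h exposure; 96-well plates; endpoints linearly interpolated, else capped at highest concentration. GI50 marks 50% less growth. The concentration for full growth arrest is given as TGI.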

Some test systems named below: A498 renal; DU-145 prostate; EKVX NSCLC; MCF7 breast; MOLT-4 leukemia; NCI-H522 lung; OVCAR-4 ovarian; RPMI-8226 leukemia; SK-MEL-28 melanoma; SNB-19 CNS.
Assay in all cases: DTP human tumour cell line panel, 48 h

Usually GI50 stands for the concentration giving 50% growth inhibition. What is called TGI is the concentration at which net growth stops. Read a high TGI as lower sensitivity of the cells. As for `N#Cc1ccc(O)c(C2=NCC(c3ccc(-c4ccccc4)cc3)O2)c1` (stereo not given), the GI50 is 402 nM in the test with A498 renal; 732 nM in the test on DU-145 prostate; 342 nM with EKVX NSCLC; 343 nM with MCF7 breast; 482 nM with MOLT-4 leukemia; 400 nM in the test on NCI-H522 lung. The GI50 in the test on OVCAR-4 ovarian is 320 nM; with RPMI-8226 leukemia, 416 nM; with SK-MEL-28 melanoma, 1340 nM; in the test on SNB-19 CNS, 489 nM. Besides, the TGI stood at 18500 nM with A498 renal; 16000 nM in the test on DU-145 prostate; 10400 nM with EKVX NSCLC; 11800 nM with MCF7 breast; 27700 nM with MOLT-4 leukemia; 10600 nM with NCI-H522 lung. In addition, the TGI was 10100 nM in the test on OVCAR-4 ovarian, greater than 100000 nM in the test with RPMI-8226 leukemia, 43800 nM with SK-MEL-28 melanoma and 26400 nM in the test on SNB-19 CNS.

Source of the values: PubChem BioAssay (NCI).
